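Assay format: 96-well plates, 48-hour exposure. Here, GI50 denotes the concentration required for 50% inhibition of growth. TGI is the concentration that stops growth completely.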 Where only a bound is given, the exact number is not on record here.

Test systems include CAKI-1 renal; HCT-116 colon; IGROV1 ovarian; LOX IMVI melanoma; OVCAR-8 ovarian; SK-MEL-5 melanoma; UACC-257 melanoma; ACHN renal; DU-145 prostate.
Holding throughout (test): NCI-60 cell line screen, 48 h

As for `N#CC(C#N)=C1NC(=O)C(c2ccccc2)C(=O)N1` (configuration not stated), the TGI with CAKI-1 renal, with HCT-116 colon, in the test with IGROV1 ovarian, with LOX IMVI melanoma, in the test on OVCAR-8 ovarian and with SK-MEL-5 melanoma was over 100 µM in each case. Also, the TGI in the test with UACC-257 melanoma is over 100 µM.

Turning to `O=C(OCCOCCOC(=O)c1c[nH]cc1-c1ccccc1)c1c[nH]cc1-c1ccccc1`, the TGI in the test on CAKI-1 renal was found to be 83.1 µM; in the test with HCT-116 colon it was 31.6 µM; in the test on IGROV1 ovarian, 42.5 µM; in the test with LOX IMVI melanoma it was 30.2 µM; in the test with OVCAR-8 ovarian it was 84.7 µM; with SK-MEL-5 melanoma it was 30.5 µM. Also, in the test with UACC-257 melanoma, the TGI was determined as 33.1 µM.

As for `CCOc1ccc(NC(=O)C2=C(C)NC(C)=C(C(=O)Nc3ccc(OCC)cc3)C2c2ccc([N+](=O)[O-])cc2)cc1`, the TGI in the test on ACHN renal is 87.4 µM; in the test with CAKI-1 renal it was over 100 µM; with IGROV1 ovarian, over 100 µM; in the test with LOX IMVI melanoma it was over 100 µM; in the test on OVCAR-8 ovarian, over 100 µM; in the test on SK-MEL-5 melanoma, 74.3 µM. In addition, the TGI in the test on UACC-257 melanoma is over 100 µM.

`C[Si](C)(C)/C(Br)=C\CCN1C(=O)CCC1O` (configuration not stated): the TGI in the test on ACHN renal, in the test with HCT-116 colon, in the test on IGROV1 ovarian, in the test with LOX IMVI melanoma, with OVCAR-8 ovarian and with UACC-257 melanoma was over 100 µM in each case.

Consider `CC(CN(CP(=O)([O-])[O-])CP(=O)([O-])[O-])N(CP(=O)([O-])[O-])CP(=O)([O-])[O-].N[C@@H]1CCCC[C@@H]1N.[Pt+2]` (configuration not stated), for which the GI50 with ACHN renal, with CAKI-1 renal, in the test with HCT-116 colon, with IGROV1 ovarian, in the test with LOX IMVI melanoma and in the test with OVCAR-8 ovarian was over 100 µM throughout. Besides, the GI50 with SK-MEL-5 melanoma and with UACC-257 melanoma was over 100 µM each time. Besides, the TGI with ACHN renal, with CAKI-1 renal, in the test on HCT-116 colon, in the test on IGROV1 ovarian, in the test on LOX IMVI melanoma and with OVCAR-8 ovarian was over 100 µM each time. The TGI in the test on SK-MEL-5 melanoma and with UACC-257 melanoma was over 100 µM in each case.

For the compound `NS(=O)(=O)c1ccc(-n2nc(-c3ccc(Cl)cc3)cc2C2=CC(=O)C=CC2=O)cc1`, the GI50 in the test on ACHN renal is 20.8 µM; in the test on CAKI-1 renal, 25.2 µM; in the test on DU-145 prostate it was 23.7 µM; in the test on IGROV1 ovarian, 39.6 µM; in the test on OVCAR-8 ovarian it was 24.2 µM; in the test with SK-MEL-5 melanoma it was 18.2 µM. Also, the GI50 in the test with UACC-257 melanoma was 19.9 µM. The TGI in the test with ACHN renal is 35.1 µM; in the test on CAKI-1 renal it was 48.5 µM; in the test on DU-145 prostate, 87.5 µM; in the test with IGROV1 ovarian, over 100 µM; in the test on OVCAR-8 ovarian, 73.7 µM; in the test with SK-MEL-5 melanoma, 43.5 µM. In the test with UACC-257 melanoma, the TGI was found to be 42.9 µM.

Turning to `Cn1cc(C(=O)C2CCCCC2)ccc1=O`, the TGI in the test with ACHN renal, in the test with CAKI-1 renal, in the test on HCT-116 colon, with IGROV1 ovarian, with LOX IMVI melanoma and in the test on OVCAR-8 ovarian was over 100 µM each time. The TGI in the test with SK-MEL-5 melanoma was over 100 µM.

On to `CC(=O)OCCOCNC(=S)N/N=C(\C)c1ccco1`, for which the TGI in the test on ACHN renal, in the test on HCT-116 colon, in the test with IGROV1 ovarian, with LOX IMVI melanoma, in the test on OVCAR-8 ovarian and with SK-MEL-5 melanoma was over 100 µM in each case. In the test on UACC-257 melanoma, this compound displayed a TGI of over 100 µM.

With `Cc1ccc(S(=O)(=O)N2CCCCC2CCO)cc1` (configuration not stated), the TGI in the test with ACHN renal, in the test with CAKI-1 renal, with HCT-116 colon, in the test with IGROV1 ovarian, in the test with OVCAR-8 ovarian and with SK-MEL-5 melanoma was over 100 µM throughout. Besides, in the test with UACC-257 melanoma, the TGI was over 100 µM.

On to `C[C@H](NC(=O)OC1C2C=CC(O)C1CC2)c1ccccc1` (some centres not stated), for which the TGI in the test with ACHN renal, with CAKI-1 renal, in the test with HCT-116 colon, in the test with IGROV1 ovarian, in the test on LOX IMVI melanoma and in the test with OVCAR-8 ovarian was over 100 µM in each case. The TGI with SK-MEL-5 melanoma and with UACC-257 melanoma was over 100 µM in each case.

In the case of `CC(=O)OC1COC(N2C(=O)C(=O)c3cc(Br)c([N+](=O)[O-])cc32)C(OC(C)=O)C1OC(C)=O` (configuration not stated), the TGI is over 100 µM with ACHN renal; over 100 µM with CAKI-1 renal; over 100 µM in the test on HCT-116 colon; over 100 µM with IGROV1 ovarian; 99 µM in the test with LOX IMVI melanoma; over 100 µM in the test on OVCAR-8 ovarian. Besides, the TGI in the test with SK-MEL-5 melanoma and in the test with UACC-257 melanoma was over 100 µM in each case.

Take `CCCCCCCCSC1=CC(=O)C(OC)=C(OC)C1=O`: the GI50 was 1.58 µM with ACHN renal; 6.11 µM in the test on CAKI-1 renal; 7.23 µM in the test on DU-145 prostate; 1.19 µM in the test on HCT-116 colon; 5.66 µM in the test on IGROV1 ovarian; 0.767 µM in the test with LOX IMVI melanoma. Moreover, the GI50 in the test on OVCAR-8 ovarian was 2.16 µM; in the test with SK-MEL-5 melanoma, 1.6 µM; in the test with UACC-257 melanoma it was 1.67 µM. Moreover, the TGI with ACHN renal stood at 2.98 µM; in the test with CAKI-1 renal, 54.6 µM; in the test on DU-145 prostate, 20.5 µM; in the test on HCT-116 colon, 2.54 µM; with IGROV1 ovarian, 23.4 µM; in the test on LOX IMVI melanoma, 2.11 µM. For the same compound, the TGI in the test with OVCAR-8 ovarian was 5.16 µM; in the test with SK-MEL-5 melanoma, 8.79 µM; in the test on UACC-257 melanoma it was 4.17 µM.

Turning to `CCN(CCCl)CCNc1c2ccccc2nc2ccc(OC)cc12`, the TGI was determined as 1.66 µM with ACHN renal; 4.23 µM with CAKI-1 renal; 2.1 µM in the test on HCT-116 colon; 2.86 µM with IGROV1 ovarian; 2.14 µM in the test on LOX IMVI melanoma; 2.26 µM with OVCAR-8 ovarian. In addition, the results for the TGI in the test on SK-MEL-5 melanoma and with UACC-257 melanoma were 2.6 µM and 3.73 µM, respectively.

For `CC(=O)O[C@H]1CC[C@@]2(C)C(=CC[C@@H]3C2CC[C@]2(C)Nc4oncc4CC32)C1` (some centres not stated), the TGI in the test with ACHN renal is 72.4 µM; in the test with CAKI-1 renal it was over 100 µM; with HCT-116 colon it was 30.4 µM; in the test on IGROV1 ovarian, over 100 µM; with OVCAR-8 ovarian, over 100 µM; in the test with SK-MEL-5 melanoma, 33.2 µM. The compound further yielded a TGI with UACC-257 melanoma of over 100 µM.

These data come from PubChem BioAssay (NCI).
